The values below come from US20200289554A1, “BIOORTHOGONAL COMPOUNDS COMPRISING A PROPARGYL GROUP FOR TREATING CANCER” (THE UNIVERSITY COURT OF THE UNIVERSITY OF EDINBURGH, priority 2016, published 2020).

Data set [1] deals with BxPC3 cells. Kind of data set: Prodrug safety dose-response cell viability (PrestoBlue), BxPC3. It is filed as cell-based. The conditions noted are these: Homo sapiens, BXPC-3, 120 h, 5 days, no catalyst. The method, then:
(§1) These cell lines were selected as these are primary malignancies against which the parental drugs are currently prescribed.
(§2) The toxicities of each active agent and prodrugs were compared by performing dose-response studies. […] Cell viability was analysed by fluoresce intensity (λex=540 nm; λem=590 nm) after 60-90 min incubation with PrestoBlue™ Reagent (Life Technologies).

Data set [2] deals with HCT116 cells. The experiment in a line: Prodrug safety dose-response cell viability (PrestoBlue), HCT116. It counts as cell-based. The conditions noted are these: Homo sapiens, HCT-116, 120 h, 5 days, no catalyst. The protocol: as §1, §2
Data set [3] has as its system BxPC3 cells. Kind of data set: BOOM conversion: prodrug + Pd0-resins in cell culture, cell viability, BxPC3. It is filed as cell-based, human. The conditions noted are these: Pd0-resin 1 mg/mL, 3 μM prodrug. The protocol: (§3) Cell viabilities for each prodrug provided as a combination with palladium is presented in FIG. 16 in the right of each set of two bars. Data for prodrug in the absence of palladium catalyst is also provided (the left bar of each set of two bars) for comparison along with negative controls (from left to right: DMSO, Pd^0 and 5FU). Cells were incubated in tissue culture media containing 0.1% (v/v) DMSO and: Pd^0-resins (1 mg/mL, negative control); 3 μM (for BxPC3 cells) or 30 μM (for HCT116 cells) of prodrug (negative control); and Pd^0-resins (1 mg/mL)+3 μM (BxPC3) or 30 μM (HCT116) of each prodrug (BOOM reaction assay). […]
(§4) Following 5 days treatment, cells were incubated with PrestoBlue™ Cell Viability Reagent (Life Technologies) for 90 min. Fluorescence intensity values were related to the untreated cells (100% cell viability). […]
(§5) The toxigenic effect as a result of in situ generation of parental drug in cell culture was determined by incubating all cells in tissue culture media containing 0.1% (v/v) DMSO and a) Pd^0, Au, or Pd/Au-resin (1 mg/mL for all cells tested, negative control); b) prodrug (negative control); or c) Pd^0, Au, or Pd/Au-resin (1 mg/mL for all cells)+prodrug (reaction assay). […]
(§6) A dose response study was performed for each cell line keeping the quantity of Pd^0 resin constant (0.8 mg/mL for U87G and 1 mg/mL for the rest of cell lines). […]

Data set [4] relates to HCT116 cells. Kind of data set: BOOM conversion: prodrug + Pd0-resins in cell culture, cell viability, HCT116. It counts as cell-based, human. The conditions noted are these: Pd0-resin 1 mg/mL, 30 μM prodrug. The method, then: as §3, §4, §5, §6
The next data set has as its system A549 cells. Kind of data set: Prodrug safety dose-response cell viability (PrestoBlue), A549. It counts as cell-based. The conditions noted are these: Homo sapiens, 120 h, 5 days, no catalyst. The method, then:
as §1, §2

The next data set deals with T98 cells. The experiment in a line: Prodrug safety dose-response cell viability (PrestoBlue), T98. The conditions noted are these: Homo sapiens, 120 h, 5 days, no catalyst. It counts as cell-based. The method, then: as §1, §2
Another data set deals with DU145 cells. Kind of data set: Prodrug safety dose-response cell viability (PrestoBlue), DU145. The conditions noted are these: Homo sapiens, DU-145, 120 h, 5 days, no catalyst. It counts as cell-based. The protocol: as §1, §2
A further data set relates to A2780 cells. The experiment in a line: Prodrug safety dose-response cell viability (PrestoBlue), A2780. The conditions noted are these: Homo sapiens, 120 h, 5 days, no catalyst. It is filed as cell-based. The method, then: as §1, §2
Data set [5] has as its system U87G cells. The experiment in a line: Prodrug safety dose-response cell viability (PrestoBlue), U87G. It counts as cell-based, human. The conditions noted are these: Homo sapiens, 120 h, read-out: EC50 (cell viability). The protocol:
as §1, §2

Data set [6] deals with U87G cells. Kind of data set: BOOM conversion: prodrug + Pd0-resins in cell culture, cell viability, U87G. It is filed as cell-based, human. The conditions noted are these: Pd0-resin, SN-38 prodrug. The method, then: Following 5 days treatment, cells were incubated with PrestoBlue™ Cell Viability Reagent (Life Technologies) for 60-90 min. Fluorescence intensity values were related to the untreated cells (100% cell viability). […] Cells incubated in 0.1% (v/v) DMSO in media were used as untreated cell control.
The toxigenic effect as a result of in situ generation of parental drug in cell culture was determined by incubating all cells in tissue culture media containing 0.1% (v/v) DMSO and a) Pd^0, Au, or Pd/Au-resin (1 mg/mL for all cells tested, negative control); b) prodrug (negative control); or c) Pd^0, Au, or Pd/Au-resin (1 mg/mL for all cells)+prodrug (reaction assay). Cells incubated in 0.1% (v/v) DMSO in media was used as an untreated cell reference standard (100% viability). A PrestoBlue® cell viability assay as described above was carried out and fluorescent intensities compared to the untreated cell control.
(§7) A dose response study was performed for each cell line keeping the quantity of Pd^0 resin constant (0.8 mg/mL for U87G and 1 mg/mL for the rest of cell lines). […] Fluorescence intensity values (detected using a PerkinElmer EnVision 2101 multilabel reader with excitation filter at 540 nm and emissions filter at 590 nm) were determined relative to the untreated cell control.

Data set [7] concerns MiaPaCa2 cells. Kind of data set: Prodrug safety dose-response cell viability (PrestoBlue), MiaPaCa2. The conditions noted are these: relative to Gemcitabine. It is filed as cell-based, human. The protocol: as §1, §2
The subject of data set [8] is MiaPaCa2 cells. The experiment in a line: BOOM conversion: prodrug + Pd0-resins in cell culture, cell viability, MiaPaCa2. It counts as cell-based, human. The protocol:
Cell viabilities for each prodrug provided as a combination with palladium is presented in FIG. 10 in the right of each set of two bars. Data for prodrug in the absence of palladium catalyst is also provided (the left bar of each set of two bars) for comparison along with negative controls (from left to right: DMSO, Pd^0 and Gemcitabine). Cells were incubated in tissue culture media containing 0.1% (v/v) DMSO and: Pd^0-resins (1 mg/mL, negative control); 0.03 μM of each prodrug (negative control); and Pd^0-resins (1 mg/mL)+0.03 μM of each prodrug (BOOM reaction assay). Cells incubated in 0.1% (v/v) DMSO in media were used as untreated cell control.
Following 5 days treatment, cells were incubated with PrestoBlue™ Cell Viability Reagent (Life Technologies) for 90 min. Fluorescence intensity values were related to the untreated cells (100% cell viability). Data are provided in FIG. 11 for cells incubated in tissue culture media containing 0.1% (v/v) DMSO and: Pd^0-resins (1 mg/mL, negative control); 0.003-0.3 μM of pPOBC-Gem (negative control); 0.003-0.3 μM of Gemcitabine (positive control); and Pd^0-resin (1 mg/mL)+pPOBC-Gem (BOOM reaction assay). Cells incubated in 0.1% (v/v) DMSO in media were used as untreated cell control.
The toxigenic effect as a result of in situ generation of parental drug in cell culture was determined by incubating all cells in tissue culture media containing 0.1% (v/v) DMSO and a) Pd^0, Au, or Pd/Au-resin (1 mg/mL for all cells tested, negative control); b) prodrug (negative control); or c) Pd^0, Au, or Pd/Au-resin (1 mg/mL for all cells)+prodrug (reaction assay). Cells incubated in 0.1% (v/v) DMSO in media was used as an untreated cell reference standard (100% viability). […]
as §7

pEC50: −log10 of the molar value.

Take `O=c1[nH]cc(F)c(=O)[nH]1` [5FU, 5-fluorouracil, reference compound]: the pEC50 – broadly, the EC50 on a negative log10 scale, so that one unit is a factor of ten – in the data set on BxPC3 cells [1] was 6.85; with HCT116 cells [2], 5.82.

As to `C#CCOc1ncc(F)c(OCC#C)n1` [Bis-Pro-5FU, 2,4-bispropargyl-5-fluorouracil], the pEC50 in the data set on BxPC3 cells [1] and in the data set with HCT116 cells [2] was less than 4.00 throughout. In addition, the “toxigenic effect of prodrug + Pd0 resins” value in the data set on BxPC3 cells [3] and with HCT116 cells [4] was “strong toxigenic effect” throughout.

For `COc1cccc2c1C(=O)c1c(O)c3c(c(O)c1C2=O)C[C@@](O)(C(=O)CO)C[C@@H]3O[C@H]1C[C@H](N)[C@H](O)[C@H](C)O1` [Doxorubicin, reference compound], the pEC50 in the data set with A549 cells is 6.98; in the data set on T98 cells it was 6.49; in the data set on DU145 cells it was 7.64.

On to `O=C(c1cc(Cc2n[nH]c(=O)c3ccccc23)ccc1F)N1CCN(C(=O)C2CC2)CC1` [Olaparib, reference compound], for which the pEC50 in the data set on A2780 cells was 5.73.

Take `C#CCOc1nnc(Cc2ccc(F)c(C(=O)N3CCN(C(=O)C4CC4)CC3)c2)c2ccccc12` [Prop-Olap, 4-[(3-[(4-cyclopropylcarbonyl)piperazin-4-yl]carbonyl)-4-fluorophenyl]methyl-phthalazin-1-oxypropargyl]: the pEC50 with A2780 cells is less than 4.00.

As to `C#CCOc1cccc(OCC#C)c1COc1ccc2nc3c(c(CC)c2c1)Cn1c-3cc2c(c1=O)COC(=O)[C@]2(O)CC` [di-oPOB-SN-38, (S)-9-((2,6-bis(prop-2-yn-1-yloxy)benzyl)oxy)-4,11-diethyl-4-hydroxy-1,12-dihydro-14H-pyrano[3′,4′:6,7]indolizino[1,2-b]quinoline-3,14(4H)-dione], in the data set with U87G cells [5], the pEC50 is 5.50. In addition, the “toxigenic effect of prodrug + Pd0 resins” value with U87G cells [6] is “strong toxigenic effect”.

As for `C#CCOc1ccc(COC(=O)Nc2ccn(C3OC(CO)C(O)C3(F)F)c(=O)n2)cc1` (stereo not shown) [pPOBC-Gem, 4-proparglyoxybenzylcarbamoyl Gemcitabine], in the data set with MiaPaCa2 cells [7], the “reduction in the cytotoxic effect relative the parent active agent” value was found to be 27 fold. Further, in the data set on MiaPaCa2 cells [8] (Homo sapiens, MIA PaCa-2, 120 h, prodrug in combination with Pd0-resins 1 mg/mL, 5 days, read-out: EC50, prodrug + Pd-resins), the pEC50 was 6.65. In addition, in the data set with MiaPaCa2 cells [8] (Pd0-resin 1 mg/mL, 0.03 μM Gemcitabine prodrugs), the “toxigenic effect of prodrug + Pd0 resins” value is “strong toxigenic effect”.
